row,SMILES,melting point [°C]
1,C/C(=C\c1ccc(C(F)(F)F)cc1)[C@H]1OC[C@H](SCc2ccc(Cl)cc2)CO1,93 to 95
2,CCC(C(C)C)C(CN)CC(=O)O (configuration not stated),170 to 180
3,O=C(O)CSc1nc(=O)[nH]cc1F,255
4,CCc1nn(CCN)c(CO)c1Oc1cc(Cl)cc(Cl)c1,105 to 107
5,CCC(CC)n1nnc2cc(C)c(C)c(N)c21,114 to 117
6,c1ccc2cc(OCCNC3CCCCC3)ccc2c1,89
7,Cc1ccc(F)c2c1N(CC1CCCO1)C(=O)C21COc2cc3c(cc21)CCO3 (configuration not stated),175 to 176
8,CC(C)=CCN1CCC(=C2c3ccccc3CCn3ccnc32)CC1,127
9,N#CN=C(Oc1ccccc1)N1CCCCC1,85.7
10,COc1cc2c(cc1O[Si](C)(C)C(C)(C)C)CN(C(=O)OC(C)(C)C)CC2,46 to 49
11,CCCc1cc(F)c(C(=O)O)cc1O,134 to 136
12,CN1CCCCC1CNC(=O)Nc1cc(N2CC(c3ccccc3)CC2=O)ccn1 (configuration not stated),144 to 146
13,CCCNC(=O)C1(C/C=C/c2ccccc2)c2ccccc2-c2ccccc21,95 to 97
14,O=c1[nH]c2ccc([C@H]3CC[C@H](NCCCc4ccccc4)CC3)cc2o1,166 to 170
15,COC(=O)c1cc2c(cc1O)OCO2,100 to 101
16,CCCCn1c(=O)[nH]c2c(Cl)cc(OC)c(OC)c2c1=N,155 to 157
17,CC1(C)CCC(C)(C)c2cc(-c3cc(-c4ccc(C(=O)O)cc4)ccc3OCCCCCCCCCO)ccc21,147 to 150
18,COc1ccc(Cl)cc1-c1nnn(-c2ccc(C(F)(F)F)cc2Cl)c1N,153

row,SMILES,melting point [°C]
1,CCCc1c(OCCCCC#N)ccc(C(=O)c2ccccc2O)c1O,81 to 82
2,CC(C)(C)C(=O)OCOC(=O)C1N2C(=O)C(NC(=O)C(N)c3ccccc3)C2SC1(C)C (configuration not stated),114 to 116
3,CCCCc1nc2ccc(C(C)O)cc2c(=O)n1Cc1ccc(-c2ccccc2-c2nnn[nH]2)cc1 (configuration not stated),146 to 147
4,O=C(CCN1CCN(c2cccc3[nH]ccc23)CC1)c1csc2ccccc12,83 to 85
5,OC1CCCc2cc(F)cc(F)c21 (configuration not stated),102 to 103
6,COC(CN1C(=O)CN=C(c2ccccc2)c2cc(Cl)ccc21)OC,117 to 119
7,CC(O)c1cc2c(OCC(O)CN3CCC(c4ccc5ccccc5c4)CC3)cccc2o1 (configuration not stated),143 to 144
8,CC(C)c1c(C(=O)Nc2ccc(C(=O)O)cc2)c(-c2ccccc2)c(-c2ccc(F)cc2)n1CC[C@@H]1C[C@H](CC(=O)OC(C)(C)C)OC(C)(C)O1,240 to 242
9,Cc1oc(-c2ccccc2)nc1CC#Cc1ccc(CC(C(=O)O)c2cccc(-c3ccccc3)c2)cc1 (configuration not stated),105 to 107
10,COc1cc2c(cc1OCc1ccccc1)C=C(C(=O)O)CCC2,172 to 173
11,OCCc1ccc(-c2ccc(Cl)cc2)cc1,113 to 115
12,CCCCCCCCCCCCCCCC/C=C\OC[C@H](O)CO,55 to 56
13,CCCCN(Cc1ccc(-c2ccccc2-c2nnnn2C(c2ccccc2)(c2ccccc2)c2ccccc2)cc1)c1ncncc1C(=O)OCC,142 to 144
14,COC(=O)C(=C(C)C)N1C(=O)[C@H]([C@H](C)OC(=O)OCc2ccc([N+](=O)[O-])cc2)[C@@H]1Cl,154 to 157
15,OCC(O)Cc1ccccc1OCc1ccc2ccccc2c1 (configuration not stated),119 to 120
16,CCCCCCCCCCNC(=O)c1cc(C(=O)NCCCCCCCCCC)cc(N(CC(=O)O)CC(=O)O)c1,164 to 167
17,N#Cc1[nH]c(-c2ccc(Cl)cc2Cl)nc1N,223 to 225

# The remaining lines, values ahead:
row,melting point [°C],SMILES
1,184,CSc1ncc(S(N)(=O)=O)c(Nc2cccc(C)c2)n1
2,102 to 104,COC(OC)c1cnc(C)nc1N
3,308 to 310,COC(=O)c1ccc2nnc(C(=O)NCc3ccc(Cl)cc3)c(O)c2c1
4,57 to 58,CC(C)C(=O)c1nccnc1SCc1ccco1
5,163 to 164,COC(=O)CCc1ccc(-n2c(C)nn(-c3ccc(C#N)cc3)c2=O)cc1
6,103 to 104,COc1cc(C)ccc1C(=O)O
7,270 to 274,O=c1[nH]c2cc(Cl)cc(Cl)c2c(O)c1Sc1ccc(NS(=O)(=O)c2ccc(Cl)cc2)cc1
8,195 to 198,Cc1ccc(Oc2ccc(-c3noc(=O)[nH]3)cc2)c(O)c1
9,237,COc1ccccc1-n1c(C(S)c2ncnc3[nH]cnc23)nc2cccc(Cl)c2c1=O (configuration not stated)
10,88,Cc1cc(C#N)nc(Oc2cc(C(F)(F)F)nn2C)c1
11,150 to 165,NCCNc1ccc2[nH]ncc2c1
12,204 to 206,CCCCNC(=O)Nc1ncc(-c2ccncc2)cn1
13,122 to 123,CS(=O)CCCn1cnc(-c2ccc(F)cc2)c1-c1ccncc1 (racemic)
14,253,CCOC(=O)c1cn(C2CC2)c2c(OC(F)F)c(Br)ccc2c1=O
15,164 to 165,CC1(C)OC(=O)Nc2ccc(-c3ccccc3F)cc21
16,254 to 257,O=C(O)c1ccc(-c2ccc3nnn(Cc4ccc5ncccc5c4)c3n2)cc1F
17,156 to 159,Cc1cc2c(s1)Oc1ccccc1N=C2N1CC2CCC(C1)N2C
18,169 to 170,Cc1ccc(C2=Nc3ccccc3N=C(N3CCN(C)CC3)C2)cc1
19,249 to 250,O=c1nc(N2CCc3ccccc32)sc2ncccc12

row,melting point [°C],SMILES
1,225 to 228,Cc1nc2c(N)nc3ccccc3c2n1CCCS(C)(=O)=O
2,110 to 112,C=C1C(=O)c2ccccc2OC1c1ccc(N(C)C)cc1 (configuration not stated)
3,178 to 182,O=C(O)c1ccc(Cc2ccc([N+](=O)[O-])cc2)cn1
4,227 to 229,Cc1c(Nc2c(C#N)cnc3sc(-c4cccc(CN(C)C)c4)cc23)ccc2[nH]ccc12
5,238 to 239,CC1(C)OCC(=O)Nc2ccc(-c3cc(F)cc(C#N)c3)cc21
6,141 to 142,CC(=O)Nc1ccc2c(c1)C(=O)N(CCO[N+](=O)[O-])CO2
7,213 to 214,CC(C)(C)OC(=O)N1CCC(Oc2ccc(C3=NNC(=O)CC3c3ccccn3)cc2)CC1 (configuration not stated)
8,136 to 138,CN1C(=O)c2ccc(NCC(O)CCl)cc2C1=O (configuration not stated)
9,302 to 304,O=c1cc(-c2ccncc2)nc2n1CCC(C(F)(F)F)N2 (configuration not stated)
10,204 to 207,CN(C)C(=O)Cn1c(-c2ccc([N+](=O)[O-])cc2)nc2cccnc21
11,94 to 96,CC(C)(C)c1cc(Cc2nc3ccccc3o2)cc(C(C)(C)C)c1O
12,95 to 96,Cc1cccc(C(=O)N(C)C)c1N
13,217 to 220,Cc1c(C(=O)NC2CCCCC2)nc(-c2ccccc2Cl)n1-c1ccc([N+](=O)[O-])cc1
14,191,Cn1ncnc1COc1nn2c(-c3ccccc3F)nnc2cc1C1(C)CCOCC1
15,246,NS(=O)(=O)c1ccc(-c2cccc(-c3nc(-c4ccc(C(F)(F)F)nc4)cc(C(F)F)n3)c2)s1
16,259 to 260,O=C1C(O)=C(c2ccccc2)C(=O)C(O)=C1/C=C/c1ccccc1
17,190 to 191,N#CCCCOc1ccc(C(=O)Nc2ccc(-n3nc(-c4cccnc4)cc3C#N)cc2)cn1
18,145 to 147,CCOC(=O)C1=C(COCCNC2=NCCS2)NC(C)=C(C(=O)OC)C1c1ccccc1Cl (configuration not stated)

# — a melting point compilation (Tetko et al.; mined from patent text by program, amines drawn as free bases though some values may be those of a salt)
